Measured values as given in US20190388411A1, “NSAID ADMINISTRATION AND RELATED COMPOSITIONS, METHODS AND SYSTEMS” (Alfasigma S.p.A., priority 2013, published 2019).

Columns and labels:
Type in all cases: in vivo, male Albino Sprague Dawley rats
[1] = Mortality in indomethacin-induced enteropathy in rats (Example 16); settings: indomethacin […] BID + rifaximin product 50 mg/kg BID, 14 days
Procedure: A percentage of 100% of survivors was also recorded in vehicle control group (Group 1).

[2] = Blood hemoglobin levels in indomethacin-induced enteropathy in rats (Example 16)
Procedure: Twenty four hours after the last dose, the rats were euthanized and samples of blood were collected for the assessment of hemoglobin levels.
Hemoglobin analysis was performed on rat blood samples collected as reported above, by means of Quantichrom Hemoglobin assay kit (Bioassay Systems, Hayward, Calif., USA) and expressed as g/dL.

myeloperoxidase (MPO) = assay: Tissue myeloperoxidase (MPO) levels in jejunum and ileum, ELISA (Example 16)
Procedure: (§1) The whole intestinal tract was removed and processed for the evaluation of tissue myeloperoxidase (MPO) levels and histological analysis of intestinal damage in jejunum and ileum.
Specimens of intestinal tissues (30 mg) were homogenized on ice with a polytron homogenizer (QIAGEN, Milan, Italy) in 0.6 mL of ice-cold lysis buffer (200 mM NaCl, 5 mM EDTA, 10 mM Tris, 10% glycerine, 1 mM PMSF, 1 μg/ml leupeptin and 28 μg/ml aprotinin (pH 7.4). The homogenate was centrifuged 2 times at 4° C. for 15 min at 1.500 g. The supernatant was diluted 1:5 and used for determination of MPO concentration by means of enzyme-linked immunosorbent assay (ELISA) (Hycult Biotech, Uden, Netherlands). All samples were assayed within 2 day after collection. The results were expressed as nanograms of MPO per milligram of intestinal tissue.

[3] = system: indomethacin - induced microscopic intestinal damage; assay: Histological analysis of intestinal damage in jejunum and ileum (Example 16); settings: rats
Procedure: as §1
Pharmacol. Ther. 1993; 7:29-39. Upon removal, the whole intestinal tract was immediately injected with 10% formalin and left in the same fixative solution. After 30 min, it was opened along the anti-mesenteric border, cleaned of fecal content and fixed in 10% formalin for 24 h. Tissue samples were taken as described below and the full length of small intestine was measured.
In particular the following tissue samples were taken • Ileum: 1 cm of tissue proximal to the ileo-cecal valve was discarded and two specimens of 1.5-2 cm of ileum were taken at this edge as well as 5 cm away from the first ileum sample • Proximal jejunum: two specimens of 1.5-2 cm were taken 5 cm away from both the proximal and distal end of the 37.5% of the small intestine total length. • Distal jejunum: two specimens of 1.5-2 cm were taken 5 cm away from both the proximal and distal end of 81% of small intestine's total length.
After fixation, tissues were embedded into paraffin blocks and were cut into consecutive serial 3-μm sections for staining with hematoxylin and eosin. Histological damage was assessed by two observers, blind to the treatment. Each section was given a score of lesion (Type 1 to 3) (TABLE 23).
Quantitative assessment of histological damage was expressed as percentage of the total length of lesions over the total length of the histological section.

[4] = rats, indomethacin […] BID 14 days, alone or with gastroresistant rifaximin 25 or 50 mg/kg BID or rifaximin polymorph alpha 50 mg/kg BID
[5] = indomethacin […] BID 14 days, alone or with gastroresistant rifaximin 25 and 50 mg/kg BID or rifaximin polymorph alpha 50 mg/kg BID

SMILES | Mortality (%) [1] | Blood hemoglobin concentration (in words) ([2]; indomethacin […] BID 14 days, alone or with gastroresistant rifaximin at both doses or rifaximin polymorph alpha 50 mg/kg BID) | Reduction of MPO levels in respect to animals which did not receive rifaximin (myeloperoxidase (MPO); rats treated with indomethacin, 14 days) | Ileum tissue MPO levels (in words) (myeloperoxidase (MPO); [4]) | Jejunum tissue MPO levels (in words) (myeloperoxidase (MPO); [4]) | Ileum type 1 lesions, microscopic assessment (in words) [3, 5] | Ileum type 2 lesions, microscopic assessment (in words) [3, 5] | Jejunum type 1 lesions, microscopic assessment (in words) [3, 5] | Lesions / histological damage in ileum and jejunum, overall (in words) ([3]; with indomethacin […] BID 14 days, gastroresistant rifaximin 25 and 50 mg/kg BID, rifaximin polymorph alpha 50 mg/kg BID) | Reduction in hemoglobin values ([2]; end of the treatment period (14 days), in respect to the control) | Jejunum type 2 lesions, microscopic assessment (in words) [3, 5]
CO[C@H]1/C=C/O[C@@]2(C)Oc3c(C)c(O)c4c(O)c(c5c(nc6cc(C)ccn65)c4c3C2=O)NC(=O)/C(C)=C\C=C\[C@H](C)[C@H](O)[C@@H](C)[C@@H](O)[C@@H](C)[C@H](OC(C)=O)[C@@H]1C [rifaximin polymorph alpha, rifaximin] | not associated with deaths | these levels were decreased | about 22% | blunted | did not exert any relevant effect | significant reduction of Type 1 lesions | no significant differences were appreciated on the occurrence of type 2 lesions | reduced the degree of type 1 lesions, although mean values were not significantly different | effective in the reduction of lesions |  | 
CO[C@H]1/C=C/O[C@@]2(C)Oc3c(C)c(O)c4c(O)c(c5c(nc6cc(C)ccn65)c4c3C2=O)NC(=O)/C(C)=C\C=C\[C@H](C)[C@H](O)[C@@H](C)[C@@H](O)[C@@H](C)[C@H](OC(C)=O)[C@@H]1C [rifaximin, (2S, 16Z, 18E, 20S, 21S, 22R, 23R, 24R, 25S, 26S, 27S, 28E)-5,6, 21, 23, 25 pentahydroxy-27-methoxy-2,4, 11, 16, 20, 22, 24, 26-octamethyl-2,7-(epoxypentadeca-(1,11,13)trienimino) benzofuro (4,5-e) pyrido (1,2,-a benzimidazole-1,15(2H)dione, 25-acetate)] | do not displayed death |  |  |  |  |  |  |  |  | 12% | significantly reduced Type 2 lesions
